According to patent US20120202840A1, “Use of Flubendazole and Vinca Alkaloids for Treatment of Hematological Diseases” (priority 2009, published 2012):

Legend:
OCI-AML2 cells [1] = test: MTS cell growth and viability assay, OCI-AML2; format: cell-based; conditions: OCI-AML2 cells, FIG. 1A
Method: (A) OCI-AML2 cells were treated for 72 h with increasing concentrations of benzimidazoles. After incubation, cell growth and viability was measured by the MTS assay. Data represent the mean percentage of viable cells ±SD from a representative experiment.

bovine tubulin [2] = test: Tubulin polymerization assay; format: biochemical; conditions: cell-free, bovine tubulin 1.8 mg/ml; flubendazole 100 μM
Method: (§1) A representative figure is shown.
Polymerization of bovine tubulin was measured according to Beyer et al^28. Briefly, bovine tubulin (1.8 mg/ml; Cytoskeleton; Denver, USA) was added to ice cold polymerization buffer (PEM; 80 mM PIPES, 0.5 mM EGTA, 2 mM MgCl2, 10% glycerol and 1 mM GTP) and centrifuged at top speed in a microcentrifuge for 5 min at 4° C. […] Following addition of tubulin, the plate was immediately placed in the spectrophotometer, which was maintained at 37° C., and the absorbance measured every 3 minutes for 2.5 h at 340 nm.

CEM = test: MTS cell growth and viability assay, CEM; format: cell-based; conditions: 3 replicates
Method: (§2) Leukemia (U937, MDAY, CEM, CEM-VBL) and solid tumor cell lines (PPC-1, HeLa) were cultured in RPMI 1640 medium. The epidermoid carcinoma cell lines KB-3-1 and KB-4.0-HTI^23 were grown in Dulbecco's Modified Eagle Medium. The lung carcinoma cell lines A549 and A549.EpoB40 were grown in RPMI with the latter supplemented with 20% fetal calf serum (FCS), and 40 nM epothilone B.^24 Leukemia cell lines OCI-AML2, CEM, and NB4 and all the myeloma cell lines (OPM2, KMS11, JJN3 LP1, H929, L1, KMS12, KSM18 and OCI My5) were maintained in Iscove's Modified Dulbecco's Medium (IMDM). TEX cells were maintained in IMDM, 15% FCS, 1% penicillin-streptomycin, 2 mM L-glutamine, 20 ng/mL SCF, 2 ng/mL IL-3. Unless otherwise noted, all media were supplemented with 10% FCS, 100 units/mL of streptomycin and 100 μg/mL of penicillin (all from Hyclone, Logan, Utah). Cells were incubated in a humidified air atmosphere containing 5% CO2 at 37° C.
(§3) Cell growth and viability was measured using the 3-(4,5-dimethylthiazol-2-yl)-5-(3-carboxymethoxyphenyl)-2-(4-sulfophenyl)-2H-tetrazolium inner salt (MTS) reduction assay (Promega, Madison, Wis.) according to the manufacture's protocol and as previously described^25. Cells were seeded in 96 well plates and treated with drug for 72 h. Optical density (OD) was measured at 490 nm.

OCI-AML2 cells [3] = conditions: after 16 days of treatment; flubendazole 15 mg/kg, vinblastine 0.3 mg/kg
Method: Sub-lethally irradiated SCID mice were injected subcutaneously with OCI-AML2 cells (n=20; 10 per group). After implantation, mice were treated with 50 mg/kg flubendazole (A), 20 mg/kg flubendazole (B), or vehicle control by intraperitoneal injection daily. Tumor volume was measured over time. After 16 days (20 mg/kg dose) or 18 days (50 mg/kg dose), mice were sacrificed and tumors were excised, measured and weighted.
Sub-lethally irradiated SCID mice were injected subcutaneously with OCI-AML2 cells (n=40; 10 per group). […] After 16 (C) or 18 (D) days, mice were sacrificed and tumors were excised, measured and weighted. Data represent the mean±SD tumor weight.
Sub-lethally irradiated SCID mice were injected subcutaneously in the left flank with leukemia OCI-AML2 (2.0×10^6) or myeloma OPM2 (1.0×10^7) cells. Mice were then randomly assigned to receive flubendazole (in 0.9% NaCl and 0.01% tween-80) or vehicle control (0.9% NaCl and 0.01% tween-80) intraperitoneally. […] Tumor volumes (tumor length×width^2×0.5236) were monitored daily using calipers. At the end of the experiment (16-18 days), mice were sacrificed, tumors excised and tumor volume and weight measured. All animal studies were carried out according to the regulations of the Canadian Council on Animal Care and with the approval of the local ethics review board.

bovine tubulin [4] = test: Measurement of tubulin sulfhydryl groups (DTNB); format: biochemical; conditions: flubendazole 100 μM, vinblastine 10 μM
Method: as §1
The ability of microtubule target drugs to alter tubulin structure was assessed by measuring the number of reactive cysteine residues using the sulfhydryl reagent 5,5′-Dithio-bis(2-nitrobenzoic acid) (DTNB; Sigma) as previously described^19,29. […] After incubation, DTNB was added (100 μM final concentration) and the absorbance was measured in a 1 cm path length cuvette at 412 nm for 60 min at 37° C. The number of sulfhydryl groups were determined by using a molar extinction coefficient for DTNB of 13 600 (M^−1, cm^−1).^29

bovine tubulin [5] = test: Site of binding to tubulin (colchicine-tubulin fluorescence); conditions: tubulin 5.0 μM, 100 μM drug 30 min, then colchicine 10 μM 60 min
Method: (C) Tubulin (5.0 μM) was incubated for 30 min with 100 μM vinblastine, 100 μM flubendazole, or buffer control. […] A representative figure is shown.
The site of flubendazole binding was determined similar to Gupta et al^19. Bovine tubulin (5.0 μM) was incubated with 100 μM flubendazole, 100 μM vinblastine or buffer control for 30 min at 37° C.

CEM-VBL = test: MTS assay, CEM-VBL (Pgp over-expressing); format: cell-based
Method: Over-expression of P-glycoprotein (Pgp, MDR1) renders cells resistant to vinca alkaloid microtubule inhibitors.^43 Therefore, the effects of Pgp over-expression on flubendazole's cytotoxicity were tested. CEM-VBL cells over-express Pgp,^44 which was confirmed with a rhodamine dye exclusion assay. CEM wild type and CEM-VBL cells were treated with increasing concentrations of flubendazole or vinblastine and cell viability measured by the MTS assay (Table 1). […] In contrast, CEM-VBL cells over-expressing Pgp were resistant to vinblastine at concentrations greater than 5.0 μM (Table 1).
as §2, §3

leukemia cell lines = test: Screen of library of 110 drugs for cytotoxicity; format: cell-based
Method: OCI-AML2 leukemia cells were treated with increasing concentrations of 8 benzimidazoles. Seventy two hours after incubation, cell growth and viability was measured by the MTS assay.

advanced solid tumors = conditions: Phase I, cited from earlier work

c1ccc2[nH]c(-c3cscn3)nc2c1 [thiabendazole]
induction of cell death (OCI-AML2 cells [1]): did not induce cell death
effect on tubulin polymerization / microtubule formation (bovine tubulin [2]): did not inhibit microtubule formation

vinblastine
IC50 (CEM): 140 ± 10 nM
mouse body weight (OCI-AML2 cells [3]): does not affect mouse body weight
reduction in number of reactive cysteines compared to buffer control (bovine tubulin [4]): 8.6±2.5
colchicine fluorescence (colchicine binding to tubulin) (bovine tubulin [5]): had no effect
IC50 (CEM-VBL; CEM-VBL, 3 replicates): > 5000 nM
sensitivity of CEM-VBL cells compared to wild type controls (CEM-VBL; Pgp over-expression): resistant

COC(=O)Nc1nc2ccc(C(=O)c3ccccc3)cc2[nH]1 [mebendazole]
cytotoxicity in library screen (leukemia cell lines): cytotoxic

CCCSc1ccc2nc(NC(=O)OC)[nH]c2c1 [albendazole]
patients with severe neutropenia (advanced solid tumors; 7 patients): 3 patients
patients with reduced levels of the tumor markers AFP and CEA (advanced solid tumors; advanced solid tumors): 2 of 7

c1ccc2[nH]cnc2c1 [1,3-benzidiazole]
induction of cell death (OCI-AML2 cells [1]): did not induce cell death
effect on tubulin polymerization / microtubule formation (bovine tubulin [2]): did not inhibit microtubule formation
